From article PMC8282797, “Strictly regulated agonist-dependent activation of AMPA-R is the key characteristic of TAK-653 for robust synaptic responses and cognitive improvement” (Scientific Reports, 2021)
Like-named read-outs stand apart in the source and are kept apart here.

Assays:
[1] = tested on: MK-801-induced working memory deficit in rats; assay: Radial arm maze (RAM) test, MK-801-induced working memory deficit; format: in vivo, rat; settings: for RAM (effective doses): summary
Experimental: RAM tests were performed using 9-week-old male Long-Evans rats as previously described with a minor modification. Each arm was 50 cm long, 10 cm wide and 40 cm high, and the maze was elevated 50 cm above the floor. Long-Evans rats were food-restricted to 85% of free-feeding body weight throughout the experimental period. Rats were well trained to collect pellets placed on the edge of each arm. The learning criterion for the testing session was defined as 2 errors or fewer for 2 consecutive days. In the testing session, each rat was placed on the maze facing the fixed arm at the start of the trial. The entry of rats into each arm was recorded in sequence until all pellets in the 8 arms were consumed, or 5 min had elapsed. […] Thirty min after dosing of vehicle or MK-801, rats were placed on the maze. Details are described in the Supplementary Information.
The experiment was performed using 9-week-old male Long-Evans rats as described previously (Zajaczkowski et al., 1996) with a minor modification. Each arm was 50 cm long, 10 cm wide and 40 cm high, and the maze was elevated 50 cm above the floor. After being fasted for 24 h, male Long-Evans rats were food-restricted to 85% of free-feeding body weight on the first day of exposure to the maze and throughout the experimental period. The experiment consists of two sessions, training and testing session. In the training session, rats were habituated to the maze and then trained. Reinforcement consisted of 3 food pellets (45 mg each) in the food cup was used. On the first day of habituation to the maze, reinforcements were placed near the entrance and at the mid-point of each arm. Three rats were placed on the maze at one time and allowed to explore and consume the pellets for 8 min. On the second day of habituation, each rat was placed on the maze and allowed 5 min to consume the pellets placed at the mid-point and in the food cup at the end of each arm. From the third day, reinforcement was placed in the food cup at the end of each arm. Rats were well trained to collect pellets placed on the edge of each arm. The learning criterion for the testing session was defined as 2 errors or less for two consecutive days. In the previous day of the testing session, baseline level of performance was qualified to confirm that rats completed collecting all pellets placed in the 8 arms with two errors or less. In the testing session, each rat was placed on the maze facing away from the experimenter and facing the fixed arm at the start of the trial. The entry of rats into each arm was recorded in sequence. Rats were allowed to explore until all pellets in the 8 arms were consumed, or 5 min had elapsed. Entry into an arm previously chosen was counted as an error. […] […] Thirty min after dosing of vehicle or MK-801, rats were placed on the maze. Data were indicated as the mean ± SEM in the testing session.

[2] = tested on: AMPA-R; assay: Whole-cell patch clamp recording using rat primary hippocampal neurons; format: cell-based; parameters: key to Single effect on AMPA-R currents: -: No effect or slight effect; +: Potent; ++: Very potent; settings: for Single effect on AMPA-R currents: summary grade
Experimental: Whole-cell patch clamp recording using primary neurons between 11 and 20 days in vitro was performed as previously described. Patch electrodes with tip resistances ranging from 3 to 5 MΩ were filled with an intracellular solution containing: 135 mM CsCl, 1 mM MgCl2, 10 mM HEPES, 10 mM EGTA, 4 mM MgATP, and 0.3 mM Na2GTP, adjusted to pH7.3 with CsOH (osmolality 275–295 mosm/L). The extracellular solution contained: 140 mM NaCl, 4 mM KCl, 2 mM CaCl2, 1 mM MgCl2, 10 mM HEPES, 5 mM NaHCO3, 10 mM D( +)-glucose, and 0.001 mM TTX, adjusted to pH7.4 with NaOH (osmolality 300–315 mosm/L). All experiments were carried out at room temperature. Neurons were voltage-clamped at − 80 mV. Steady-state inward currents were evoked by the application of AMPA and AMPA potentiator via Y-tube perfusion system. Signals were recorded using a Multiclamp 700B amplifier (Molecular Devices, LLC, Orleans Drive Sunnyvale, CA), digitized using a Digidata 1440A interface board, filtered between 2 kHz, sampled at 10 kHz, and analyzed with pClamp10 software. Details are described in the Supplementary Information.
Whole-cell patch clamp technique was used for recording current from cultured rat hippocampal neurons between 11-20 days in vitro. Patch electrodes with tip resistances ranging from 3 to 5 MΩ were filled with an intracellular solution containing: 135 mM CsCl, 1 mM MgCl2, 10 mM HEPES, 10 mM EGTA, 4 mM Mg-ATP, 0.3 mM Na2-GTP, adjusted to pH7.3 with CsOH (osmolality 275-295 mosm/L). The extracellular solution contained: 140 mM NaCl, 4 mM KCl, 2 mM CaCl2, 1 mM MgCl2, 10 mM HEPES, 5 mM NaHCO3, 10 mM D(+)-glucose, and 0.001 mM TTX, adjusted to pH7.4 with NaOH (osmolality 300-315 mosm/L). All experiments were carried out at room temperature and performed using an Axopatch-1D amplifier with pCLAMP 9 software (Molecular Devices, LLC, Orleans Drive Sunnyvale, CA), low-pass filtered at 2 kHz, and stored on the computer hard-disk for off-line analysis. Neurons were voltage-clamped at –80mV. Steady-state inward currents were evoked by the application of AMPA and AMPA potentiator via Y-tube perfusion system. AMPA-R potentiator was applied 20 s prior to 10-s AMPA stimulus. The current at all drug concentrations tested was normalized by the steady-state current induced by 1 μM AMPA. In the absence of AMPA, the maximum current during 60-s application of AMPA-R potentiator was normalized by the steady-state current induced by 100 μM AMPA.

Row | Structure (SMILES) | Working memory in the RAM test ([1]; 0.1 to 3 mg/kg, i.p., MK-801 0.08 mg/kg, s.c.) | RAM (effective doses) [1] | EC50 ([2]; single application, read-out: EC50, increase of AMPA-R-mediated currents) [µM] | Single effect on AMPA-R currents [2] | MK-801-induced deficits in RAM task ([1]; 0.1, 0.3, 3 and 10 mg/kg, p.o., MK-801 0.08 mg/kg, s.c.) | Potency relative to LY451646 in potentiation of AMPA-elicited currents (times less potent) [2] [times] | AMPA-R currents, Agonistic effect @30 μM ([2]; absence of AMPA, % of AMPA (100 μM)-induced steady-state response) [%] | EC50 ([2]; in the presence of 1 μM AMPA, read-out: AMPA-R currents, Potentiation EC50) [µM]
1 | Cc1onc(O)c1CC(N)C(=O)O (stereo not drawn) [AMPA, alpha-amino-3-hydroxy-5-methyl-4-isoxazole-propionic acid] | neither LY451646 at 0.03 to 1 mg/kg, p.o. nor AMPA at 0.1 to 3 mg/kg, i.p. improve | No effect | 45 | ++ |  |  |  | 
2 | CC1=CN2CCS(=O)(=O)N=C2C(c2ccc(OC3CCCCC3)cc2)=N1 [TAK-653, 9-[4-(Cyclohexyloxy)phenyl]-7-methyl-3,4-dihydropyrazino[2,1-c][1,2,4]thiadiazine 2,2-dioxide] |  | Effective (0.1, 0.3, 3, 10) |  | ─ | significantly ameliorated | 2.3 | 1.7 | 4.4
